Measured values: paper PMC10144242, “Design, Synthesis, In Vitro, and In Silico Insights of 5-(Substituted benzylidene)-2-phenylthiazol-4(5H)-one Derivatives: A Novel Class of Anti-Melanogenic Compounds” (Molecules, 2023)

Assays:
[1] = DPPH radical scavenging assay; conditions: 1 mM, 30 min in the dark
Description: The 2,2-diphenyl-1-picrylhydrazyl (DPPH) radical scavenging capacity of the (Z)-BPT derivatives (1 mM) was investigated using L-ascorbic acid (1 mM, vitamin C) as a positive control. […] L-Ascorbic acid scavenged 97.1% of the DPPH radical, whereas (Z)-BPT derivative 1 with a 4-hydroxyl substituent on the β-phenyl ring scavenged 46.5% of the DPPH radical.
The antioxidant properties of (Z)-BPT derivatives 1–14 against DPPH (2,2-diphenyl-1-picrylhydrazyl) radicals were examined using a DPPH radical scavenging assay, as previously described with minor modifications. DPPH solution (180 µL, 0.2 mM) in methanol was mixed with a (Z)-BPT derivative solution (1–14, 20 µL, 10 mM) in dimethyl sulfoxide in each well of a 96-well plate, and the mixture was kept for 30 min in the dark at room temperature. The absorbance at 517 nm was measured using a VersaMax ™ microplate reader (Molecular Devices, Sunnyvale, CA, USA). The capacity of the derivatives to scavenge DPPH radicals was compared with that of L-ascorbic acid, which was used as the positive control. Each experiment was run independently in triplicates.
Figure 10 The radical scavenging effect of (Z)-BPT derivatives on DPPH. The DPPH radical scavenging activities of test samples (1 mM) were assayed after being left in the dark for 30 min. Distilled water and dimethyl sulfoxide (DMSO) were utilized as the solvents for the positive control L-ascorbic acid and the (Z)-BPT derivatives, respectively. Asterisks (***) represent a significant difference between L-ascorbic acid and the (Z)-BPT derivatives, and results are expressed as the mean ± standard error of three different experiments. *** p < 0.001.

B16F10 cells [2] = experiment: Cell viability / cytotoxicity, EZ-Cytox assay; format: cell-based, murine; conditions: concentrations ≤ 20 µM, 48 and 72 h
Description: Before investigating their inhibitory effects on B16F10 cells, the viability of (Z)-BPT derivatives 1–3 was examined in B16F10 cells.
To determine the cell viability, six different concentrations (0, 1, 2, 5, 10, and 20 µM) of (Z)-BPT derivatives 1–3 were used, and the results were examined at two time points (48 and 72 h). […] Based on the cell viability results, the concentrations for cell-based assays related to the melanin production level and cellular tyrosinase activity were determined.
Cytotoxicity studies of (Z)-BPT derivatives 1–3 were performed on B16F10 melanoma cells using the previously established EZ-Cytox (EZ-3000, DoGenBio, Seoul, Republic of Korea) test, and cytotoxicity studies of (Z)-BPT derivatives 1–3 were conducted on B16F10 melanoma cells. Briefly, B16F10 cells were seeded in a 96-well plate at a density of 1 × 10^4 cells/well and cultivated at 37 °C for 24 h in a humid environment with 5% CO2. […] The cells were then incubated at 37 °C for 2 h after 10 µL of the EZ-Cytox solution had been added to each well. To determine the cell viability, the absorbance of each well was measured at 450 nm using a microplate reader (VersaMax^TM, Molecular Devices, Sunnyvale, CA, USA). Each assay was performed in triplicates.
Figure 6 Effects of (Z)-BPT derivatives 1–3 on cell viability in B16F10 cells. Cytotoxic effects were measured using an EZ-Cytox assay at six different concentrations (0, 1, 2, 5, 10, and 20 µM) of 1–3. (A) Derivative 1; (B) Derivative 2; (C) Derivative 3. *** p < 0.001 for non-treated cells vs. cells treated with 3.

B16F10 cells [3] = experiment: Melanin content (anti-melanogenesis) assay in IBMX/α-MSH-stimulated cells; format: cell-based, murine; conditions: 72 h; for effect on cellular melanin content: B16F10, 20 µM, IBMX + α-MSH; for effect on cellular melanin content increased by stimulators: B16F10, 5, 10, 20 µM, IBMX 200 µM + α-MSH 1 µM
Description: Cells were exposed to four different concentrations (0, 5, 10, and 20 µM) of 1 and 2 prior to treatment with stimulators (3-isobutyl-1-methylxanthine (IBMX, 200 µM), and α-melanocyte stimulating hormone (α-MSH, 1 µM)). After 72 h of incubation, the effects of 1 and 2 on melanin production were determined. Cellular melanin levels were assessed by measuring melanin levels in cell lysates.
The melanin content assay standard procedure was used to investigate the anti-melanogenic effect of (Z)-BPT derivatives 1 and 2 with a few minor modifications. Briefly, B16F10 melanoma cells were seeded in each well of a 6-well plate at a density of 1 × 10^5 cells/well and allowed to adhere to the well bottom under conditions that were identical to those used for cell culture. […] For 72 h, B16F10 cells were incubated at 37 °C in a humid environment containing 5% CO2 after being treated with IBMX and α-MSH. To determine the intracellular melanin content, B16F10 cells stimulated with IBMX and α-MSH for 72 h were rinsed twice with PBS and incubated in 200 µL 1N-NaOH solution including 10% dimethyl sulfoxide (DMSO) at 60 °C. The cell lysates were transferred to a 96-well plate after an hour of incubation, and the absorbance of the melanin content was calculated using a VersaMax^TM microplate reader (Molecular Devices, Sunnyvale, CA, USA) to determine intracellular melanin levels. Each experiment was performed independently in triplicates.
Figure 7 Effects of (Z)-BPT derivatives 1 and 2 on cellular melanin levels in B16F10 cells. […] (A) Derivative 1 and (B) derivative 2.

| SMILES | DPPH radical scavenging activity [1] | cytotoxicity (B16F10 cells [2]) | effect on cellular melanin content (B16F10 cells [3]) | effect on cellular melanin content increased by stimulators (B16F10 cells [3]) |
| --- | --- | --- | --- | --- |
| O=C1N=C(c2ccccc2)S/C1=C\c1ccc(O)cc1 [Compound 1, (Z)-5-(4-Hydroxybenzylidene)-2-phenylthiazol-4(5H)-one] | 46.5% | did not show any perceptible cytotoxicity | more effectively than kojic acid | significantly and dose-dependently diminished |
| O=C1N=C(c2ccccc2)S/C1=C\c1ccc(O)cc1O [Compound 2, (Z)-5-(2,4-Dihydroxybenzylidene)-2-phenylthiazol-4(5H)-one] | 66.9% | did not show any perceptible cytotoxicity | below those of the non-treated control | significantly and dose-dependently diminished |
